Measurements published in patent publication US20250042929A1, “NEW CRYSTAL FORM OF TRISACCHARIDE” (SHANDONG HENGLU BIOTECH. CO., LTD., priority 2022, published 2025).

Experiments:
Type in all cases: physicochemical
[1] = Hygroscopicity study in constant temperature and humidity chamber; conditions: for Moisture rate: Example 9, after 5 days; for Added weight: about 1 g sample; for Before the experiment, appearance: before placing in chamber
Experimental: • Step 1: Preparation of glass petri dishes
One day before the experiment, place glass petri dishes (without lids) in a constant temperature and humidity chamber set at 25±1° C. and 75±2% relative humidity for 4 hours. Take out the dishes, accurately weigh, and repeat until consistent weight readings are obtained. Record the data in Table 3. • Step 2: Weigh the amorphous LNTII powder and LNTII crystalline form A from Example 1 separately, place them in the pre-weighed petri dishes from Step 1 in a constant temperature and humidity chamber set at 25° C. and 75% relative humidity. After 5 days, examine any physical changes, reweigh the samples, and calculate their hygroscopicity. Record the results in Tables 2 and 3. A comparison of the physical appearances before and after moisture exposure are depicted in FIG. 5 and FIG. 6.
Replicating the procedure outlined in Example 8, evaluate the LNTII crystalline form A samples obtained from Examples 1-7. Place the samples in pre-weighed petri dishes within a constant temperature and humidity chamber at 25° C. and 75% relative humidity. After 5 days, inspect for any changes in appearance, weigh the samples, and calculate their hygroscopicity. Document the findings in Table 4.

[2] = Stability study, sealed in aluminum-plastic composite film, 40° C. and 75% relative humidity
Experimental: In this invention, the quantification of LNTII is performed using high-performance liquid chromatography (HPLC) under the conditions listed below:
Chromatographic column: Asahipak NH2P-504E, 4.6 mm×250 mm, 5 μm particle size; mobile phase composition: acetonitrile to water in a ratio of 65:35; flow rate: 1 mL/min; detection method: UV-VIS detector; wavelength: 210 nm; column temperature: 30° C.; injection volume: 10 μL; total run time: 30 minutes.
Separately weigh 10 g of amorphous LNTII powder produced in Examples 1-7. Seal each sample with aluminum-plastic composite film. Store all samples in a constant temperature and humidity chamber at 40° C. and 75% relative humidity. Retrieve samples at the end of January, February, and March to assess the LNTII content and observe any changes in appearance. Record the outcomes in Table 5.

[3] = as above; conditions: 3 months
[4] = End of 1 month, 40° C., 75% relative humidity, HPLC
[5] = End of 2 months, 40° C., 75% relative humidity, HPLC
[6] = End of 3 months, 40° C., 75% relative humidity, HPLC
[7] = Example 8, 25° C., 75% relative humidity, 5 days

Moisture rate ([1]; 25° C., 75% relative humidity) [%] | Content ([2]; Day 0, LNTII content by HPLC) [%] | Content [2, 4] [%] | Content [2, 5] [%] | Content [2, 6] [%] | Compound | further results
12.87 | 97.98 | 98.02 | 97.97 | 97.96 | CC(=O)NC1C(O)[C@H](O)C(CO)O[C@H]1OC1C(O)[C@H](O[C@H]2C(CO)OC(O)C(O)C2O)OC(CO)[C@@H]1O (stereo partly shown) [Example 1 Crystalline form A, Lacto-N-triose II] | –
13.26 | 98.18 | 98.15 | 98.22 | 98.23 | CC(=O)NC1C(O)[C@H](O)C(CO)O[C@H]1OC1C(O)[C@H](O[C@H]2C(CO)OC(O)C(O)C2O)OC(CO)[C@@H]1O (stereo partly shown) [Example 2 Crystalline form A, Lacto-N-triose II] | –
14.09 | 97.87 | 97.90 | 97.93 | 97.88 | CC(=O)NC1C(O)[C@H](O)C(CO)O[C@H]1OC1C(O)[C@H](O[C@H]2C(CO)OC(O)C(O)C2O)OC(CO)[C@@H]1O (stereo partly shown) [Example 3 Crystalline form A, Lacto-N-triose II] | –
13.61 | 92.30 | 92.32 | 92.33 | 92.27 | CC(=O)NC1C(O)[C@H](O)C(CO)O[C@H]1OC1C(O)[C@H](O[C@H]2C(CO)OC(O)C(O)C2O)OC(CO)[C@@H]1O (stereo partly shown) [Example 4 Crystalline form A, Lacto-N-triose II] | –
13.79 | 92.57 | 92.61 | 92.51 | 92.64 | CC(=O)NC1C(O)[C@H](O)C(CO)O[C@H]1OC1C(O)[C@H](O[C@H]2C(CO)OC(O)C(O)C2O)OC(CO)[C@@H]1O (stereo partly shown) [Example 5 Crystalline form A, Lacto-N-triose II] | –
13.32 | 91.98 | 91.94 | 91.84 | 91.93 | CC(=O)NC1C(O)[C@H](O)C(CO)O[C@H]1OC1C(O)[C@H](O[C@H]2C(CO)OC(O)C(O)C2O)OC(CO)[C@@H]1O (stereo partly shown) [Example 6 Crystalline form A, Lacto-N-triose II] | –
12.74 | 98.58 | 98.56 | 98.48 | 98.56 | CC(=O)NC1C(O)[C@H](O)C(CO)O[C@H]1OC1C(O)[C@H](O[C@H]2C(CO)OC(O)C(O)C2O)OC(CO)[C@@H]1O (stereo partly shown) [Example 7 Crystalline form A, Lacto-N-triose II] | –
– | – | – | – | – | CC(=O)NC1C(O)[C@H](O)C(CO)O[C@H]1OC1C(O)[C@H](O[C@H]2C(CO)OC(O)C(O)C2O)OC(CO)[C@@H]1O (stereo partly shown) [LNTII amorphous powder, Lacto-N-triose II, reference compound] | Moisture rate (moisture absorption rate = added weight/sample weight × 100%) [1, 7]: 29.47%; Day 5, appearance ([1]; Example 8, 25° C., 75% relative humidity, 5 days, open petri dish): Light yellow, paste; Added weight [1, 7]: 0.2951 g; Before the experiment, appearance ([1]; Example 8): Off-white powder; Content ([2]; Day 0, LNTII content by HPLC, listed as Amorphous LNTII powder): 91.24%; Content ([2]; End of 1 month, 40° C., 75% relative humidity, HPLC, listed as Amorphous LNTII powder): 91.01%; Content ([2]; End of 2 months, 40° C., 75% relative humidity, HPLC, listed as Amorphous LNTII powder): 90.86%; Content ([2]; End of 3 months, 40° C., 75% relative humidity, HPLC, listed as Amorphous LNTII powder): 90.01%; Content and appearance throughout the stability study, in words ([3]; listed as amorphous LNTII powder): decreases the content and the color gradually fades to pale yellow
– | – | – | – | – | CC(=O)NC1C(O)[C@H](O)C(CO)O[C@H]1OC1C(O)[C@H](O[C@H]2C(CO)OC(O)C(O)C2O)OC(CO)[C@@H]1O (stereo partly shown) [LNTII form A, Lacto-N-triose II] | Stability (from appearance changes and hygroscopicity results), in words ([1]; 25° C., 75% relative humidity, 5 days, crystalline form A compared with amorphous powder): superior to the amorphous powder; Moisture rate (moisture absorption rate = added weight/sample weight × 100%) [1, 7]: 14.17%; Added weight [1, 7]: 0.1418 g; Before the experiment, appearance ([1]; Example 8): Off-white; Content and appearance throughout the stability study, in words ([3]; listed as LNTII crystalline form A): maintains its content and appearance throughout the stability study
